Consider nine compounds from patent publication US11753446B2, “Beta-hairpin peptidomimetics” (POLYPHOR AG, priority 2014, dated 2023).

For data set [1], the system named is Acinetobacter baumannii DSM 30008. The class given is cell-based. As to conditions: DSM 30008. A digest of the protocol:
(§1)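 Peptide activity was tested by NCCLS broth microdilution with slight modifications. Bacteria were diluted in cation-adjusted Mueller-Hinton II broth to approximately 10^6 CFU/mL against a 0.5 McFarland standard. They were then exposed to two-fold serial peptide dilutions in broth containing 0.002% final polysorbate 80.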

Data set [2] relates to Escherichia coli ATCC 25922. In kind it is cell-based. As to conditions: ATCC 25922. Put shortly:
as §1

In data set [3] the test system is Klebsiella pneumoniae ATCC 13883. In kind it is cell-based. As to conditions: ATCC 13883. Put shortly:
as §1

Data set [4] concerns human red blood cells (hRBC). The data set can be described thus: Hemolysis: hemolytic activity at 100 μg/mL, 1 h at 37° C. As to conditions: red cells of human, 1 h, 100. Put shortly: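 Peptides at 100 μg/mL incubated with washed 20% (v/v) human erythrocytes (~0.9×10^9 cells/mL) for 1 h at 37 °C with shaking. Released hemoglobin read at OD 540 nm in supernatant; 0% and 100% lysis from PBS/0.001% acetic acid and 2.5% Triton X-100.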

Where a SMILES comes first, the peptide text is derived from it. Bridges are numbered along the chain shown (N, C = ends). [ ]: non-standard residue; d: D form. Ala(cPent) = N[C@@H](CC1CCCC1)C(=O)O; Gly(cPent) = N[C@H](C(=O)O)C1CCCC1; dDab = NCC[C@@H](N)C(=O)O; Orn = NCCC[C@H](N)C(=O)O; Dab = NCC[C@H](N)C(=O)O

On to `CC(C)C[C@@H]1NC(=O)[C@H](CCN)NC(=O)[C@@H](CCN)NC(=O)[C@H](C(C)C)NC(=O)[C@@H]2CSSC[C@H](NC1=O)C(=O)N[C@@H](Cc1ccc(O)cc1)C(=O)N[C@@H](CC(N)=O)C(=O)N[C@@H](CCCN)C(=O)N[C@H](CCN)C(=O)N[C@@H](CCN)C(=O)N[C@@H](Cc1c[nH]c3ccccc13)C(=O)N[C@@H](CC(N)=O)C(=O)N[C@@H](Cc1ccc(O)cc1)C(=O)N2` [Example 54, cyclo(-Leu-Cys-Tyr-Asn-Orn-^DDab-Dab-Trp-Asn-Tyr-Cys-Val-^DDab-Dab-)] (HELM PEPTIDE1{C.V.[NCC[C@@H](N[*:1])C(=O)[*:2]].[Dab].L.C.Y.N.[Orn].[NCC[C@@H](N[*:1])C(=O)[*:2]].[Dab].W.N.Y}$PEPTIDE1,PEPTIDE1,1:R3-6:R3|PEPTIDE1,PEPTIDE1,1:R1-14:R2$$$V2.0), for which the “Acinetobacter baumannii DSM 30008 MIC” value in data set [1] worked out at 1.25 µg/mL. The “Escherichia coli ATCC 25922 MIC” value in data set [2] amounted to 0.75 µg/mL. Further, the “Klebsiella pneumoniae ATCC 13883 MIC” value in data set [3] is 1 µg/mL. For the same compound, the “Hemolysis at 100 μg/mL” value in data set [4] came out at 3%.
On to `CC(C)C[C@@H]1NC(=O)[C@H](CCCNC(=N)N)NC(=O)[C@@H](CCN)NC(=O)[C@H](C(C)C)NC(=O)[C@@H]2CSSC[C@H](NC1=O)C(=O)N[C@@H](Cc1ccc(O)cc1)C(=O)N[C@@H](CC(N)=O)C(=O)N[C@@H](CCCN)C(=O)N[C@@H](CCN)C(=O)N[C@@H](CCN)C(=O)N[C@@H](Cc1c[nH]c3ccccc13)C(=O)N[C@@H](CO)C(=O)N[C@@H](Cc1ccc(O)cc1)C(=O)N2` [Example 55, cyclo(-Leu-Cys-Tyr-Asn-Orn-Dab-Dab-Trp-Ser-Tyr-Cys-Val-^DDab-Arg-)] (HELM PEPTIDE1{C.V.[NCC[C@@H](N[*:1])C(=O)[*:2]].R.L.C.Y.N.[Orn].[Dab].[Dab].W.S.Y}$PEPTIDE1,PEPTIDE1,1:R3-6:R3|PEPTIDE1,PEPTIDE1,1:R1-14:R2$$$V2.0), for which the “Acinetobacter baumannii DSM 30008 MIC” value in data set [1] came to 1.25 µg/mL. The “Escherichia coli ATCC 25922 MIC” value in data set [2] came out at 1 µg/mL. In data set [3], the “Klebsiella pneumoniae ATCC 13883 MIC” value was determined as 1 µg/mL. In addition, in data set [4], the “Hemolysis at 100 μg/mL” value was found to be 0%.
For `CC(C)C[C@@H]1NC(=O)[C@H](CCCNC(=N)N)NC(=O)[C@@H](CCN)NC(=O)[C@H](C(C)C)NC(=O)[C@@H]2CSSC[C@H](NC1=O)C(=O)N[C@@H](Cc1ccc(O)cc1)C(=O)N[C@@H](CC(N)=O)C(=O)N[C@@H](CCN)C(=O)N[C@H](CCN)C(=O)N[C@@H](CCN)C(=O)N[C@@H](Cc1c[nH]c3ccccc13)C(=O)N[C@@H](CO)C(=O)N[C@@H](Cc1ccc(O)cc1)C(=O)N2` [Example 56, cyclo(-Leu-Cys-Tyr-Asn-Dab-^DDab-Dab-Trp-Ser-Tyr-Cys-Val-^DDab-Arg-)] (HELM PEPTIDE1{C.V.[NCC[C@@H](N[*:1])C(=O)[*:2]].R.L.C.Y.N.[Dab].[NCC[C@@H](N[*:1])C(=O)[*:2]].[Dab].W.S.Y}$PEPTIDE1,PEPTIDE1,1:R3-6:R3|PEPTIDE1,PEPTIDE1,1:R1-14:R2$$$V2.0), the “Acinetobacter baumannii DSM 30008 MIC” value in data set [1] was 0.625 µg/mL. In addition, the “Escherichia coli ATCC 25922 MIC” value in data set [2] came to 1 µg/mL. Besides, in data set [3], the “Klebsiella pneumoniae ATCC 13883 MIC” value was determined as 1 µg/mL. Also, the “Hemolysis at 100 μg/mL” value in data set [4] stood at 1%.
As to `CC(C)[C@@H]1NC(=O)[C@H](CCCNC(=N)N)NC(=O)[C@@H](CCN)NC(=O)[C@H](C(C)C)NC(=O)[C@@H]2CSSC[C@H](NC1=O)C(=O)N[C@@H](Cc1ccc(O)cc1)C(=O)N[C@@H](CC(N)=O)C(=O)N[C@@H](CCCN)C(=O)N[C@H](CCN)C(=O)N[C@@H](CCN)C(=O)N[C@@H](Cc1c[nH]c3ccccc13)C(=O)N[C@@H](CO)C(=O)N[C@@H](Cc1ccc(O)cc1)C(=O)N2` [Example 57, cyclo(-Val-Cys-Tyr-Asn-Orn-^DDab-Dab-Trp-Ser-Tyr-Cys-Val-^DDab-Arg-)] (HELM PEPTIDE1{C.V.[NCC[C@@H](N[*:1])C(=O)[*:2]].R.V.C.Y.N.[Orn].[NCC[C@@H](N[*:1])C(=O)[*:2]].[Dab].W.S.Y}$PEPTIDE1,PEPTIDE1,1:R3-6:R3|PEPTIDE1,PEPTIDE1,1:R1-14:R2$$$V2.0), in data set [1], the “Acinetobacter baumannii DSM 30008 MIC” value stood at 1.25 µg/mL. Besides, the “Escherichia coli ATCC 25922 MIC” value in data set [2] amounted to 1 µg/mL. For the same compound, the “Klebsiella pneumoniae ATCC 13883 MIC” value in data set [3] turned out to be 1.5 µg/mL. In addition, the “Hemolysis at 100 μg/mL” value in data set [4] stood at 1%.
For `CC(C)[C@@H]1NC(=O)[C@@H]2CSSC[C@H](NC(=O)[C@H](CC3CCCC3)NC(=O)[C@H](CCCNC(=N)N)NC(=O)[C@@H](CCN)NC1=O)C(=O)N[C@@H](Cc1ccc(O)cc1)C(=O)N[C@@H](CC(N)=O)C(=O)N[C@@H](CCCN)C(=O)N[C@H](CCN)C(=O)N[C@@H](CCN)C(=O)N[C@@H](Cc1c[nH]c3ccccc13)C(=O)N[C@@H](CO)C(=O)N[C@@H](Cc1ccc(O)cc1)C(=O)N2` [Example 58, cyclo(-Cpa-Cys-Tyr-Asn-Orn-^DDab-Dab-Trp-Ser-Tyr-Cys-Val-^DDab-Arg-)] (cyclo([Ala(cPent)]CYN[Orn][dDab][Dab]WSYCV[dDab]R); disulfide 2-11), the “Acinetobacter baumannii DSM 30008 MIC” value in data set [1] is 0.625 µg/mL. In addition, in data set [2], the “Escherichia coli ATCC 25922 MIC” value stood at 0.5 µg/mL. Besides, the “Klebsiella pneumoniae ATCC 13883 MIC” value in data set [3] came out at 0.75 µg/mL. In data set [4], the “Hemolysis at 100 μg/mL” value was found to be 3%.
The corresponding values for `CC(C)[C@@H]1NC(=O)[C@@H]2CSSC[C@H](NC(=O)[C@H](C3CCCC3)NC(=O)[C@H](CCCNC(=N)N)NC(=O)[C@@H](CCN)NC1=O)C(=O)N[C@@H](Cc1ccc(O)cc1)C(=O)N[C@@H](CC(N)=O)C(=O)N[C@@H](CCCN)C(=O)N[C@H](CCN)C(=O)N[C@@H](CCN)C(=O)N[C@@H](Cc1c[nH]c3ccccc13)C(=O)N[C@@H](CO)C(=O)N[C@@H](Cc1ccc(O)cc1)C(=O)N2` [Example 59, cyclo(-Cpg-Cys-Tyr-Asn-Orn-^DDab-Dab-Trp-Ser-Tyr-Cys-Val-^DDab-Arg-)] (cyclo(CV[dDab]R[Gly(cPent)]CYN[Orn][dDab][Dab]WSY); disulfide 1-6) are 0.75 µg/mL, 1 µg/mL, 0.75 µg/mL and 1%.
In the same order, the values of `CCC[C@@H]1NC(=O)[C@H](CCCNC(=N)N)NC(=O)[C@@H](CCN)NC(=O)[C@H](C(C)C)NC(=O)[C@@H]2CSSC[C@H](NC1=O)C(=O)N[C@@H](Cc1ccc(O)cc1)C(=O)N[C@@H](CC(N)=O)C(=O)N[C@@H](CCCN)C(=O)N[C@H](CCN)C(=O)N[C@@H](CCN)C(=O)N[C@@H](Cc1c[nH]c3ccccc13)C(=O)N[C@@H](CO)C(=O)N[C@@H](Cc1ccc(O)cc1)C(=O)N2` [Example 60, cyclo(-Nva-Cys-Tyr-Asn-Orn-^DDab-Dab-Trp-Ser-Tyr-Cys-Val-^DDab-Arg-)] (HELM PEPTIDE1{C.V.[NCC[C@@H](N[*:1])C(=O)[*:2]].R.[Nva].C.Y.N.[Orn].[NCC[C@@H](N[*:1])C(=O)[*:2]].[Dab].W.S.Y}$PEPTIDE1,PEPTIDE1,1:R3-6:R3|PEPTIDE1,PEPTIDE1,1:R1-14:R2$$$V2.0) are 0.75 µg/mL, 1 µg/mL, 1 µg/mL and 1%.
In the same order, the values of `CC[C@@H]1NC(=O)[C@H](CCCNC(=N)N)NC(=O)[C@@H](CCN)NC(=O)[C@H](C(C)C)NC(=O)[C@@H]2CSSC[C@H](NC1=O)C(=O)N[C@@H](Cc1ccc(O)cc1)C(=O)N[C@@H](CC(N)=O)C(=O)N[C@@H](CCCN)C(=O)N[C@H](CCN)C(=O)N[C@@H](CCN)C(=O)N[C@@H](Cc1c[nH]c3ccccc13)C(=O)N[C@@H](CO)C(=O)N[C@@H](Cc1ccc(O)cc1)C(=O)N2` [Example 61, cyclo(-Abu-Cys-Tyr-Asn-Orn-^DDab-Dab-Trp-Ser-Tyr-Cys-Val-^DDab-Arg-)] (HELM PEPTIDE1{[Abu].C.Y.N.[Orn].[NCC[C@@H](N[*:1])C(=O)[*:2]].[Dab].W.S.Y.C.V.[NCC[C@@H](N[*:1])C(=O)[*:2]].R}$PEPTIDE1,PEPTIDE1,2:R3-11:R3|PEPTIDE1,PEPTIDE1,1:R1-14:R2$$$V2.0) are 1.5 µg/mL, 2 µg/mL, 2 µg/mL and 1%.
Turning to `CC(C)C[C@@H]1NC(=O)[C@H](CCCNC(=N)N)NC(=O)[C@@H](CCN)NC(=O)[C@H](C(C)C)NC(=O)[C@@H]2CSSC[C@H](NC1=O)C(=O)N[C@@H](Cc1ccc(O)cc1)C(=O)N[C@@H](CCC(N)=O)C(=O)N[C@@H](CCCN)C(=O)N[C@H](CCN)C(=O)N[C@@H](CCN)C(=O)N[C@@H](Cc1c[nH]c3ccccc13)C(=O)N[C@@H](CO)C(=O)N[C@@H](Cc1ccc(O)cc1)C(=O)N2` [Example 62, cyclo(-Leu-Cys-Tyr-Gln-Orn-^DDab-Dab-Trp-Ser-Tyr-Cys-Val-^DDab-Arg-)] (HELM PEPTIDE1{C.V.[NCC[C@@H](N[*:1])C(=O)[*:2]].R.L.C.Y.Q.[Orn].[NCC[C@@H](N[*:1])C(=O)[*:2]].[Dab].W.S.Y}$PEPTIDE1,PEPTIDE1,1:R3-6:R3|PEPTIDE1,PEPTIDE1,1:R1-14:R2$$$V2.0), the “Acinetobacter baumannii DSM 30008 MIC” value in data set [1] worked out at 0.625 µg/mL. In addition, in data set [2], the “Escherichia coli ATCC 25922 MIC” value is 0.375 µg/mL. Further, the “Klebsiella pneumoniae ATCC 13883 MIC” value in data set [3] was found to be 1 µg/mL. For the same compound, the “Hemolysis at 100 μg/mL” value in data set [4] came to 2%.
